Data as given in ChEMBL document CHEMBL6153017, “Progress on the mechanism of natural products alleviating androgenetic alopecia” (2024).

Experiments:
Format in all cases: functional
Hair follicle [1] = assay: Upregulation of RBPJ mRNA expression in human hair follicle assessed as fold change at 5 ug/ml; details: dose 5 µg/ml
Hair follicle [2] = assay: Upregulation of SHH mRNA expression in human hair follicle assessed as fold change at 0.5 uM measured for 48 hrs by qRT-PCR analysis
Hair follicle [3] = assay: Upregulation of Gli mRNA expression in human hair follicle assessed as fold change at 0.5 uM measured for 48 hrs by qRT-PCR analysis
Hair follicle [4] = assay: Upregulation of PTCH mRNA expression in human hair follicle assessed as fold change at 0.5 uM measured for 48 hrs by qRT-PCR analysis
Hair follicle [5] = assay: Upregulation of Smo mRNA expression in human hair follicle assessed as fold change at 0.5 uM measured for 48 hrs by qRT-PCR analysis

## O=C(O[C@@H]1Cc2c(O)cc(O)cc2O[C@@H]1c1cc(O)c(O)c(O)c1)c1cc(O)c(O)c(O)c1 [EPIGALOCATECHIN GALLATE]
Hair follicle [1]
  fold change (FC): 7
Hair follicle [2]
  fold change (FC): 4.48
Hair follicle [3]
  fold change (FC): 1.67
Hair follicle [4]
  fold change (FC): 4.18
Hair follicle [5]
  fold change (FC): 4.71
